Experimental data reported in US20260256922A1, “PRODRUGS USEFUL FOR REDUCING ANTHRACYCLINE CARDIOTOXICITY” (WAKE FOREST UNIVERSITY HEALTH SCIENCES, priority 2022, published 2026).

Experiments:
[1] = Time-dependent DOX release from prodrugs in presence of H2O2 (LCMS); assay type: physicochemical; details: prodrug 10 μM, H2O2 10 μM, ammonium bicarbonate buffer 0.1 M pH 7.4, room temperature, over two hours
Description: FIG. 1. Time-course for DOX release from prodrugs (10 μM) in ammonium bicarbonate buffer (0.1 M, pH 7.4) at room temperature and in the presence of H2O2 (10 μM). A calibration curve was used to determine the concentration of free DOX at each time point by LCMS. Plotted as the mean±standard error of the mean (SEM) from three independent experiments.
To confirm this reactivity, we incubated c1 (10 μM) with H2O2 (10 μM) at room temperature in ammonium bicarbonate buffer (0.1 M, pH 7.4). At various time points, an aliquot was removed and analyzed by LCMS. Using a calibration curve, we determined the percentage of released DOX over the course of two hours. […] For comparison, we also assessed the reactivity of c2 towards the same concentration of peroxides. Like c1, c2 also functioned as an H2O2-activated DOX prodrug, but with faster kinetics, as quantitative release of free DOX was realized within 60 min.
A stock solution of c1 (or c2, 10 mM) in DMSO and H2O2 (10 mM) in ammonium bicarbonate buffer (0.1M, pH 7.4) were prepared immediately prior to use. […] At various time points (0 min, 10 min, 35 min, 60 min, 80 min, 100 min, 120 min), a 1 mL (inject volume 60 μL) aliquot was removed and analyzed by LC-MS (using a C18 analytical column and eluting at 0.4 mL/min with a linear gradient (20-90% v/v) MeOH/H2O (0-2 min), followed by 90% v/v MeOH/H2O (2-19 min)). […]

[2] = Methylene blue assay of H2S release; assay type: physicochemical; details: for H2S released: c1 40 μM
Description: FIG. 3. Methylene blue assay depicting the time-dependent release of H2S from c1 (40 μM) while in the presence of H2O2 (40 μM) and carbonic anhydrase (CA). Plotted as the mean±SEM from three independent experiments. Data were collected in the presence (circles) or absence (squares) of H2O2.
H2S release from c1. We confirmed the time-dependent liberation of H2S using a methylene blue assay^46 and measuring the resulting absorbance at 670 nm after c1 exposure to H2O2 (FIG. 3, circle). Using a calibration curve generated with Na2S, we determined that c1 (40 μM) was able to release more than 16 μM H2S while in the presence of both H2O2 ([…]) and carbonic anhydrase (CA). […] As a control, the same assay was also run in the absence of CA (data not shown). Under these conditions, c1 exposure to H2O2 yielded small amounts of H2S ([…]). This is presumably due to isocyanate formation and the direct release of H2S from the breakdown of 4.
With carbonic anhydrase: Six separate vials were each filled with 150 μL of freshly degassed PBS (pH 7.4) containing Zn(OAc)2 (2 mM), carbonic anhydrase (0.1 mg/mL), and DOX (80 μM). Next, 150 μL of Na2S stock solution in freshly degassed PBS (pH 7.4), and at differing concentrations (6.25, 12.5, 25.0, 50.0, 100 and 200.0 μM), was added to each vial to give a final volume of 300 μL and a final concentration of 3.125, 6.25, 12.5, 25.0, 50.0, and 100.0 µM Na2S. […] The MB solution was transferred to a 1.0 mL UV cuvette and the absorbance at 670 nm was recorded.
Without carbonic anhydrase: Six separate vials were each filled with 150 μL of freshly degassed PBS (pH 7.4) containing Zn(OAc)2 (2 mM) and DOX (80 μM). […] The MB solution was transferred to a 1.0 mL UV cuvette and the absorbance at 670 nm was recorded. […]
With carbonic anhydrase: To a 20 mL scintillation vial containing 9770 μL of freshly degassed PBS (pH 7.4) was added stock solutions of carbonic anhydrase (50 μL), H2O2 (40 μL), Zn(OAc)2 (100 μL), and c1 (or c2) (40 μL). […] After reacting for 30 min in the dark, absorbance measurements were recorded at 670 nm. […]

[3] = test system: mitochondrial ROS; assay: Mitochondrial ROS in cardiomyoblasts; details: compared with DOX

COc1cccc2c1C(=O)c1c(O)c3c(c(O)c1C2=O)C[C@@](O)(C(=O)CO)C[C@@H]3O[C@H]1C[C@H](NC(=S)OCc2ccc(B3OC(C)(C)C(C)(C)O3)cc2)[C@H](O)[C@H](C)O1 [c1]
percentage of released DOX [1]: greater than 70%
share of H2S production via COS hydrolysis facilitated by CA [2]: ~ 70%
H2S released ([2]; absence of peroxides): negligible amounts of H2S
H2S released ([2]; in presence of H2O2 and carbonic anhydrase): more than 16 μM
mitochondrial ROS levels [3]: lower levels of mitochondrial ROS
